In patent US20140228248A1, “METHODS AND COMPOSITIONS FOR DETECTING INFECTIONS” (BIOMED VALLEY DISCOVERIES, INC., priority 2011, published 2014):

Columns and labels:
DH5α E. coli = test: Live cell filter assay in culture media (Millipore NCM filter, scintillation counter); format: cell-based; conditions: for cell based signal over background signal: 10,000 cells incubated for 8 hours, Millipore NCM filter
Description: 10,000 cells were put into 2 ml of media (LB, SOB, SOC, DeTox™, or TB), and incubated for 8 hours at 37° C. and shaken at 250 rpm. The samples were then passed through the respective filters (Millipore and others) via a syringe, then the samples were washed with 40 ml of PBS via a syringe. The filter samples were counted using a scintillation counter.
Millipore NCM filters were also used in the live cell experiments. […] Moreover, LB and SOB media strongly potentiated the growth of the DH5α E. coli. The cell based signals are 42.78-fold and 82.63-fold, respectively, over background signal for these two media.
10,000, 50,000 or 100,000 DH5α cells were added into 1 ml SOB media, and 1 μl of 1.76 mM ^14C FIAU was added to the mixture to constitute a 1.76 μM solution. The mixture was incubated for 4 to 6 hours at 37° C. in an agitation incubator. After the incubation period, the mixture was passed through a 0.22 μm Millipore nitrocellulose filter. The filter was then washed with 40 ml of 1×PBS using a syringe. The CPM was determined using a scintillation counter.

DH5α cells = test: Detection of cells spiked into rat CSF / SOB mix (filter assay); format: cell-based, E. coli; conditions: 10,000 cells, 50% CSF (rat) and 50% SOB, 1.76 μM, 5 hours or less
Description: An experiment was also performed to determine whether a shorter incubation period is possible. 10,000 DH5α cells were added into 1 ml rat CSF. 1 ml of SOB media and 2 μl of 1.76 mM ^14C FIAU was added to the mixture to constitute a 1.76 μM solution. The mixture was incubated for 5 hours at 37° C. in an agitation incubator. After the incubation period, the mixture was passed through a 0.22 μm Millipore nitrocellulose filter. The filter was then washed with 40 ml of 1×PBS using a syringe. The CPM was determined using a scintillation counter. Thus, 10,000 cells after 5 hours or less of incubation in a mixture containing 50% CSF and 50% SOB were detectable.

DH5α (E. coli) cells = test: Detection of cells spiked into human urine / SOB mix (filter assay); format: cell-based; conditions: 10,000 DH5α cells, 50% urine and 50% SOB mix, 1.76 μM, 5 hours
Description: In another set of experiments, 10,000 DH5α cells were added into 1 ml human urine. 1 ml of SOB media and 2 μl of 1.76 mM ^14C FIAU was added to the mixture to constitute a 1.76 μM solution. The mixture was incubated for 5 hours at 37° C. in an agitation incubator. After the incubation period, the mixture was passed through a 0.22 μm Millipore nitrocellulose filter. The filter was then washed with 40 ml of 1×PBS using a syringe. The CPM was determined using a scintillation counter. Thus, 10,000 DH5α (E. coli) cells were detectable in a 50% urine and 50% SOB mix in 5 hours.

SMILES | cell based signal over background signal (DH5α E. coli; LB media) | cell based signal over background signal (DH5α E. coli; SOB media) | signal versus background (DH5α E. coli; 10,000 DH5α cells, 1 ml SOB, 1.76 μM (200 mCi/mmol), about 4 hours) | detectability of cells (DH5α cells) | detectability of cells (DH5α (E. coli) cells)
O=c1[nH]c(=O)n([C@@H]2O[C@H](CO)[C@@H](O)[C@@H]2F)cc1I [FIAU, 2′-fluoro-5-iodo-1-β-D-arabinofuranosyluracil] | 42.78 fold | 82.63 fold |  |  | 
O=c1[nH][14c](=O)n([C@@H]2O[C@H](CO)[C@@H](O)[C@@H]2F)cc1I [^14C-FIAU, ^14C-labeled 2′-fluoro-5-iodo-1-β-D-arabinofuranosyluracil] |  |  | signal above the background | detectable | detectable
